# According to publication PMC10458458, “Characterization of Anticancer Effects of the Analogs of DJ4, a Novel Selective Inhibitor of ROCK and MRCK Kinases” (Pharmaceuticals, 2023):
# Columns and labels:
# Assay in all cases: NCI-60 screen (SRB)
# Type in all cases: cell-based, human
# [1] = system: LOX IMVI; conditions: LOX IMVI (Melanoma), 10 µM, 48 h; negative = cell death vs time zero
# From the text: (§1) The selected active compounds were screened at NCI, as a part of In Vitro Cell Line Screening Project (IVCLSP), for their effect on cell growth in 60 different cancer cell lines. The 60 human cancer cell line panel included leukemia, melanoma, non-small cell lung cancer, colon, central nervous system (CNS), ovarian, renal, prostate, and breast cancer cell lines. The detailed procedure and applications of NCI-60 cell line screening can be found at https://dtp.cancer.gov/discovery_development/nci-60/default.htm (accessed on 9 January 2023). Briefly, cells were plated in 96-well plates and incubated for 24 h. One set of cells was fixed with trichloroacetic acid at time 0 h (Tz), and SRB (sulphorhodamine B) assays were performed to quantify the cells. The remaining set of cells were treated with 10 µM single concentration of each compound and incubated for 48 h (Te) after which the cells were fixed, and the SRB assays were performed. Data are presented as percent growth relative to the control as 100% according to the following calculations:
# (§2) When Te >/= Tz. Growth(%)=Te−Tz/C−Tz∗100 and when Te < Tz. (1) Growth(%)=Te−Tz/Tz∗100
# (§3) Values between 0–100 indicate cell growth, zero (0) indicates no cell growth, values < 0 indicate cell death.
# [2] = system: ACHN; conditions: ACHN (Renal Cancer), 10 µM, 48 h; negative = cell death vs time zero
# From the text: as §1, §2, §3
# [3] = system: SK-MEL-28; conditions: SK-MEL-28 (Melanoma), 10 µM, 48 h; negative = cell death vs time zero
# From the text: as §1, §2, §3
# [4] = system: SF-268; conditions: SF-268 (CNS Cancer), 10 µM, 48 h; negative = cell death vs time zero
# From the text: as §1, §2, §3
# [5] = system: SR; conditions: SR (Leukemia), 10 µM, 48 h; negative = cell death vs time zero
# From the text: as §1, §2, §3
# [6] = system: TK-10; conditions: TK-10 (Renal Cancer), 10 µM, 48 h; negative = cell death vs time zero
# From the text: as §1, §2, §3
# [7] = system: SK-MEL-5; conditions: SK-MEL-5 (Melanoma), 10 µM, 48 h; negative = cell death vs time zero
# From the text: as §1, §2, §3
# [8] = system: RXF 393; conditions: RXF 393 (Renal Cancer), 10 µM, 48 h; negative = cell death vs time zero
# From the text: as §1, §2, §3
# [9] = system: OVCAR-3; conditions: OVCAR-3 (Ovarian Cancer), 10 µM, 48 h; negative = cell death vs time zero
# From the text: as §1, §2, §3
# [10] = system: HOP-62; conditions: HOP-62 (Non-Small Cell Lung Cancer), 10 µM, 48 h; negative = cell death vs time zero
# From the text: as §1, §2, §3
# [11] = system: MOLT-4; conditions: MOLT-4 (Leukemia), 10 µM, 48 h; negative = cell death vs time zero
# From the text: as §1, §2, §3
# [12] = system: HCT-15; conditions: HCT-15 (Colon Cancer), 10 µM, 48 h; negative = cell death vs time zero
# From the text: as §1, §2, §3
# [13] = system: K-562; conditions: 10 µM, 48 h; for percent cell growth: K-562 (Leukemia), negative = cell death vs time zero; for increase in cell number: K-562 (leukemia)
# From the text: as §1, §2, §3
# [14] = system: MDA-MB-435; conditions: MDA-MB-435 (Melanoma), 10 µM, 48 h; negative = cell death vs time zero
# From the text: as §1, §2, §3
# [15] = system: DU-145; conditions: DU-145 (Prostate Cancer), 10 µM, 48 h; negative = cell death vs time zero
# From the text: as §1, §2, §3
# [16] = system: M14; conditions: M14 (Melanoma), 10 µM, 48 h; negative = cell death vs time zero
# From the text: as §1, §2, §3
# [17] = system: HOP-92; conditions: HOP-92 (Non-Small Cell Lung Cancer), 10 µM, 48 h; negative = cell death vs time zero
# From the text: as §1, §2, §3
# [18] = system: PC-3; conditions: PC-3 (Prostate Cancer), 10 µM, 48 h; negative = cell death vs time zero
# From the text: as §1, §2, §3
# [19] = system: OVCAR-5; conditions: OVCAR-5 (Ovarian Cancer), 10 µM, 48 h; negative = cell death vs time zero
# From the text: as §1, §2, §3
# [20] = system: COLO 205; conditions: COLO 205 (Colon Cancer), 10 µM, 48 h; negative = cell death vs time zero
# From the text: as §1, §2, §3
# [21] = system: OVCAR-8; conditions: OVCAR-8 (Ovarian Cancer), 10 µM, 48 h; negative = cell death vs time zero
# From the text: as §1, §2, §3
# [22] = system: NCI-H23; conditions: NCI-H23 (Non-Small Cell Lung Cancer), 10 µM, 48 h; negative = cell death vs time zero
# From the text: as §1, §2, §3
# [23] = system: HCC-2998; conditions: for percent cell growth: HCC-2998 (Colon Cancer), negative = cell death vs time zero
# From the text: as §1, §2, §3
# [24] = system: A498; conditions: A498 (Renal Cancer), 10 µM, 48 h; negative = cell death vs time zero
# From the text: as §1, §2, §3
# [25] = system: MDA-MB-468; conditions: MDA-MB-468 (Breast Cancer), 10 µM, 48 h; negative = cell death vs time zero
# From the text: as §1, §2, §3
# [26] = system: HCT-116; conditions: HCT-116 (Colon Cancer), 10 µM, 48 h; negative = cell death vs time zero
# From the text: as §1, §2, §3
# [27] = system: MDA-MB-231; conditions: MDA-MB-231 (Breast Cancer), 10 µM, 48 h; negative = cell death vs time zero
# From the text: as §1, §2, §3
SMILES,percent cell growth [1],percent cell growth [2],percent cell growth [3],percent cell growth [4],percent cell growth [5],percent cell growth [6],percent cell growth [7],percent cell growth [8],percent cell growth [9],percent cell growth [10],percent cell growth [11],percent cell growth [12],percent cell growth [13],percent cell growth [14],percent cell growth [15],percent cell growth [16],percent cell growth [17],percent cell growth [18],percent cell growth [19],percent cell growth [20],further results
C=CC/N=C1\NC(=O)/C(=C\c2c[nH]c3ncccc23)S1 [DJ-Allyl],0.6%,−1.2%,−2.4%,−3.3%,−9.5%,1.7%,2.0%,−41.3%,−7.0%,−10.8%,5.8%,24.7%,42.1%,21.1%,12.7%,24.5%,−1.9%,12.6%,5.3%,−20.1%,"increase in cell number [13]: ~ 40%; percent cell growth [21]: 10.7%; percent cell growth [22]: 6.8%; percent cell growth ([23]; 10 µM, 48 h): 44.6%; increase in cell number ([23]; HCC-2998 (colon), 10 µM, 48 h): ~ 40%; percent cell growth [24]: −34.5%; percent cell growth [25]: 1.0%; percent cell growth [26]: 6.3%; percent cell growth [27]: 19.8%"
Cl.O=C1NC(=NCCc2ccccc2)SC1=Cc1c[nH]c2ncccc12 (mixture of isomers) [DJ4-HCl],8.3%,−12.0%,0.8%,8.9%,−1.5%,18.8%,−0.2%,−30.1%,3.4%,−3.0%,8.6%,33.5%,28.5%,18.5%,15.3%,31.7%,11.8%,19.2%,18.1%,−6.8%,"percent cell growth [21]: 9.7%; percent cell growth [22]: 3.0%; percent cell growth ([23]; 10 µM, 48 h): 66.2%; percent cell growth [24]: −21.3%; percent cell growth [25]: −2.1%; percent cell growth [26]: 5.8%; percent cell growth [27]: 25.9%"
CC/N=C1\NC(=O)/C(=C\c2c[nH]c3ncccc23)S1 [DJE4],1.8%,0.7%,−17.2%,−5.8%,0.4%,−3.8%,9.2%,−39.3%,−2.1%,−26.5%,−6.0%,16.0%,26.3%,−0.8%,9.9%,0.7%,4.4%,2.3%,8.7%,−33.3%,"increase in cell number [13]: 26%; percent cell growth [21]: 6.3%; percent cell growth [22]: −7.9%; percent cell growth ([23]; 10 µM, 48 h): 10.2%; percent cell growth [24]: −54.2%; percent cell growth [25]: −34.7%; percent cell growth [26]: 4.0%; percent cell growth [27]: 10.7%"
O=C1N/C(=N\CCc2ccccc2)S/C1=C/c1c[nH]c2ncccc12 [DJ4],16.3%,16.0%,16.0%,10.4%,5.6%,34.2%,14.5%,−20.2%,5.6%,19.9%,11.4%,36.5%,29.9%,21.0%,20.7%,29.9%,−9.7%,25.9%,37.8%,4.8%,"percent cell growth [21]: 14.0%; percent cell growth [22]: 9.1%; percent cell growth ([23]; 10 µM, 48 h): 53.9%; IC50 ([23]; Homo sapiens, HCC-2998 colon cancer cells, NCI-60 screen): > 10 µM; percent cell growth [24]: −7.6%; percent cell growth [25]: −14.5%; percent cell growth [26]: 9.7%; percent cell growth [27]: 25.5%"
